Results: ChEMBL document CHEMBL1944605, “Amides of xanthurenic acid as zinc-dependent inhibitors of Lp-PLA(2)” (Bioorg Med Chem Lett, 2012)

target: T1, Platelet-activating factor acetylhydrolase (Homo sapiens, UniProt Q13093); experiment: Inhibition of human plasma lipoprotein-associated phospholipase A2 using 2-thio-PAF as substrate preincubated for 20 mins measured 1 hr post substrate addition by spectrophotometric analysis
T1 sequence (Q13093 whole entry): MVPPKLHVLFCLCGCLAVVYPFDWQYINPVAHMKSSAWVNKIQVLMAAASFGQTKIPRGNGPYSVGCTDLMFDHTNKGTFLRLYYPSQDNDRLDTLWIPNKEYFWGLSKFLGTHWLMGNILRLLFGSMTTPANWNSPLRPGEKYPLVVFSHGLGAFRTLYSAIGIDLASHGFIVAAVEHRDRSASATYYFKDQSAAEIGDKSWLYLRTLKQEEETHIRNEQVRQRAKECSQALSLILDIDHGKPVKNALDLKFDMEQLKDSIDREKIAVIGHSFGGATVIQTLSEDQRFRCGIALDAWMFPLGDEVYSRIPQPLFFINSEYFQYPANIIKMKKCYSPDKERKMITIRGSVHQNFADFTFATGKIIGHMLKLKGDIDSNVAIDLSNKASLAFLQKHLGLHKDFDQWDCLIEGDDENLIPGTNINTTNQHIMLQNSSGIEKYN

| IC50 [µM] | SMILES |
| --- | --- |
| > 100 | O=C(Nc1ccccc1)c1ccc2cccc(O)c2n1 |
| > 100 | O=C(O)c1cc(O)c2cccc(O)c2n1 [XANTHURENATE] |

| SMILES | IC50 [µM] |
| --- | --- |
| Oc1cccc2cccnc12 [OXYQUINOLINE] | > 100 |

target: T1, Platelet-activating factor acetylhydrolase; experiment: Inhibition of human plasma lipoprotein-associated phospholipase A2 using 2-thio-PAF as substrate preincubated for 20 mins measured 1 hr post substrate addition by spectrophotometric analysis

| IC50 [µM] | SMILES |
| --- | --- |
| > 100 | O=C(Nc1ccccc1)c1ccc2cccc(O)c2n1 |
| > 100 | O=C(O)c1cc(O)c2cccc(O)c2n1 [XANTHURENATE] |

| SMILES | IC50 [µM] |
| --- | --- |
| Oc1cccc2cccnc12 [OXYQUINOLINE] | > 100 |
